Data set [1] concerns anaesthetized dog. Put plainly: Antiangorous activity on anaesthetized dog: consumption of oxygen in the left ventricule and cardiac effort (KATZ's index). It is filed as in vivo. The settings on record: for inhibition in vivo at 2.5 mg/kg / inhibition in vivo at 0.625 mg/kg / inhibition in vivo at 4.6 mg/kg / inhibition in vivo at 0.6 mg/kg / inhibition in vivo at […] / inhibition in vivo at 1.25 mg/kg: Canis lupus familiaris, iv; for inhibition in vivo at […]: 1.5 mg/kg i.v. slow perfusion. A digest of the protocol:
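Dogs anaesthetized with sodium pentobarbital 30 mg/kg i.v.; compounds given by slow i.v. perfusion. Left ventricular O2 consumption = coronary venous flow (Morawitz cannula in coronary sinus) × arteriovenous O2 difference; cardiac effort (Katz index) = mean arterial pressure × heart rate from D2 ECG.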

Data set [2] can be described thus: in vivo. The settings on record: for LD50: read-out: Toxicity: LD50; for mortality: read-out: Toxicity (Mortality). The text has this:
*LD50 or percentage of mortality which is given between brackets

[3] abbreviates: 2.5 mg/kg i.v. slow perfusion, read-out: Diminution in consumption of O2.
Setting [4] is: 2.5 mg/kg i.v. slow perfusion, read-out: Diminution in the cardiac effort (IK).
Setting [5] is: 0.625 mg/kg i.v. slow perfusion.
[6] abbreviates: 0.625 mg/kg i.v. slow perfusion, read-out: Diminution in consumption of O2.
Where [7] appears, read: 0.625 mg/kg i.v. slow perfusion, read-out: Diminution in the cardiac effort (IK).

Structures are written as SMILES. Where two headings read alike, the source gives them in different places.

Usually LD50 stands for the dose at which mortality reaches 50%. On to `COc1cc(/C=C/C(=O)N2CCN(CC(O)COc3cccc4c3OCCO4)CC2)cc(OC)c1OC` (stereo not shown) [760 519], for which the “Diminution in consumption of O2: in time” value in data set [1] (2.5 mg/kg i.v. slow perfusion) was found to be 15 min. Further, in data set [1] (2.5 mg/kg i.v. slow perfusion), the “Diminution in the cardiac effort (IK): in time” value (from here on “Diminution in the cardiac effort”) came out at 15 min. Moreover, the inhibition in vivo at 2.5 mg/kg in data set [1] (setting [3]) stood at 51%; in data set [1] (setting [4]), 11%. Moreover, in data set [2] (iv), the LD50 was 218 mg/kg.

Broadly, the mortality is the share of the test organisms that died. Take `COc1cc(/C=C/C(=O)N2CCN(CC(O)COc3ccc(CC(N)=O)c4c3OCCO4)CC2)cc(OC)c1OC` (stereo not shown) [770 386]: in data set [1] (setting [5]), the “Diminution in consumption of O2: in time” value amounted to 30 min and the “Diminution in the cardiac effort” value is 30 min. In addition, in data set [1] (setting [6]), the inhibition in vivo at 0.625 mg/kg was found to be 41%. The inhibition in vivo at 0.625 mg/kg in data set [1] (setting [7]) worked out at 20%. Moreover, the mortality in data set [2] (iv, 400 mg/kg i.v.) was determined as 20%.

As to `COc1cc(/C=C/C(=O)N2CCN(CC(O)COc3ccc(SC)cc3)CC2)cc(OC)c1OC` (stereo not shown) [760 507], in data set [1] (4.6 mg/kg i.v. slow perfusion), the “Diminution in consumption of O2: in time” value came to 60 min and the “Diminution in the cardiac effort” value was found to be 30 min. In data set [1] (4.6 mg/kg i.v. slow perfusion, read-out: Diminution in consumption of O2), the inhibition in vivo at 4.6 mg/kg stood at 68%. Further, the inhibition in vivo at 4.6 mg/kg in data set [1] (4.6 mg/kg i.v. slow perfusion, read-out: Diminution in the cardiac effort (IK)) was 32%. Besides, the LD50 in data set [2] (iv) was 185 mg/kg.

For `COc1cc(/C=C/C(=O)N2CCN(CC(O)COc3ccc(NC(C)=O)cc3)CC2)cc(OC)c1OC` (stereo not shown) [760 542], in data set [1] (2.5 mg/kg i.v. slow perfusion), the “Diminution in consumption of O2: in time” value is on record as 45 min and the “Diminution in the cardiac effort” value was 50 min. In addition, in data set [1] (setting [3]), the inhibition in vivo at 2.5 mg/kg amounted to 64%. Besides, in data set [1] (setting [4]), the inhibition in vivo at 2.5 mg/kg stood at 32%. Further, the mortality in data set [2] (iv, 400 mg/kg i.v.) amounted to 0%.

In the case of `CCCC(=O)c1ccc(OCC(O)CN2CCN(C(=O)/C=C/c3cc(OC)c(OC)c(OC)c3)CC2)c2c1OCCO2` (stereo not shown) [760 866], in data set [1] (0.6 mg/kg i.v. slow perfusion), the “Diminution in consumption of O2: in time” value is reported as 30 min and the “Diminution in the cardiac effort” value is listed as 30 min. Besides, the inhibition in vivo at 0.6 mg/kg in data set [1] (0.6 mg/kg i.v. slow perfusion, read-out: Diminution in consumption of O2) was found to be 54%. Besides, the inhibition in vivo at 0.6 mg/kg in data set [1] (0.6 mg/kg i.v. slow perfusion, read-out: Diminution in the cardiac effort (IK)) was 20%. Also, the mortality in data set [2] (iv, 360 mg/kg i.v.) is 30%.

Take `COc1cc(/C=C/C(=O)N2CCN(CC(O)COc3ccc(NC(=O)C(C)(C)C)c4c3OCCO4)CC2)cc(OC)c1OC` (stereo not shown) [770 614]: in data set [1] (setting [5]), the “Diminution in consumption of O2: in time” value worked out at 30 min and the “Diminution in the cardiac effort” value is on record as 30 min. Also, the inhibition in vivo at 0.625 mg/kg in data set [1] (setting [6]) was determined as 49%. Moreover, the inhibition in vivo at 0.625 mg/kg in data set [1] (setting [7]) amounted to 45%. For the same compound, the mortality in data set [2] (po, p.o.: 2000 mg/kg) was determined as 11%.

With `Cc1cccc(C)c1NC(=O)CN1CCN(CCCC(c2ccc(F)cc2)c2ccc(F)cc2)CC1` [LIDOFLAZINE, reference compound], the inhibition in vivo at […] in data set [1] (read-out: Diminution in consumption of O2) amounted to 48%; in data set [1] (read-out: Diminution in the cardiac effort (IK)), 40%. The mortality in data set [2] (iv, 25 mg/kg i.v.) came to 50%.

Regarding `COc1cc(/C=C/C(=O)N2CCN(CC(O)COc3ccc(CO)c4c3OCCO4)CC2)cc(OC)c1OC` (stereo not shown) [760 705], in data set [1] (1.25 mg/kg i.v. slow perfusion), the “Diminution in consumption of O2: in time” value amounted to 38 min and the “Diminution in the cardiac effort” value was 75 min. Besides, in data set [1] (1.25 mg/kg i.v. slow perfusion, read-out: Diminution in consumption of O2), the inhibition in vivo at 1.25 mg/kg came to 51%. Moreover, in data set [1] (1.25 mg/kg i.v. slow perfusion, read-out: Diminution in the cardiac effort (IK)), the inhibition in vivo at 1.25 mg/kg turned out to be 26%. For the same compound, the mortality in data set [2] (iv, 400 mg/kg i.v.) was found to be 20%.

In the case of `COc1cc(/C=C/C(=O)N2CCN(CC(O)COc3ccc(C(N)=O)cc3)CC2)cc(OC)c1OC` (stereo not shown) [770 058], in data set [1] (2.5 mg/kg i.v. slow perfusion), the “Diminution in consumption of O2: in time” value amounted to 30 min and the “Diminution in the cardiac effort” value is given as 30 min. The inhibition in vivo at 2.5 mg/kg in data set [1] (setting [3]) amounted to 36%. Further, the inhibition in vivo at 2.5 mg/kg in data set [1] (setting [4]) is 35%. Also, the LD50 in data set [2] (iv) was 315 mg/kg.

For the origin of these results see patent US4178442A, “Novel cinnamoyles piperazines and homopiperazines, the method of preparing them and their application in therapeutics” (Delalande S. A., priority 1977, dated 1979).
